Reference: patent publication US9963444B2, “N-acylethanolamine hydrolyzing acid amidase (NAAA) inhibitors and their use thereof” (Northeastern University, priority 2014, dated 2018)
pIC50: −log10 of the molar value. Read-outs that look alike come from different tables or passages of the source.

Key:
[1] = target: T1, hNAAA (Homo sapiens (Human), UniProt Q02083); test: Inhibition kinetics of hNAAA (pre-incubation, Lineweaver-Burk plot, rapid dilution); format: biochemical
Protocol: The curves represent 15 minutes (filled circles, solid line) and 3 hours (open circles, dotted line) preincubation of hNAAA with NAAA inhibitor Example 4.
Example 4 inhibition kinetics of hNAAA (reversible or irreversible) was investigated using two methods: (1) Short (15 min) and long (180 min) pre-incubation of the inhibitor and enzyme prior to addition of N-(4-methyl coumarin) palmitamide (PAMCA) substrate (FIG. 1). Example's 4 inhibition concentration (IC50) was unaffected by longer pre-incubation of hNAAA with 4.

[2] = system: TNBS-induced colitis; test: TNBS-induced colitis in mice; format: in vivo
Protocol: NAAA inhibitor Example 4 (10 mg/kg bid, ip) *p<0.05 versus the TNBS untreated group.
PEA (10 mg/kg) and NAAA inhibitor Example 4 (AM; 10 mg/kg bid, ip). Mice were sacrificed on day 3 after administration. Effects of PEA and Example 4 on colon weight/length ratio, feces and MPO activity, mRNA expression of F4-80, CD11b, IL-12, TNF-α, MCP-1 and IL-1β expression measured by ELISA. #p<0.05; ##p<0.005; ###p<0.001 versus control mice; *p<0.05 versus the TNBS-untreated group.
TNBS-induced colitis is accompanied by increased pro-inflammatory cytokines expression in the liver and brain. Effects of PEA administration and NAAA inhibition with Example 4 (10 mg/kg b.i.d) on pro-inflammatory cytokines expression in (A) the liver and (B) brain. Results are expressed as mean±SEM with n=10mice/group. *p<0.05; **p<0.005; ***p<0.001 versus the TNBS untreated group.
Applicants also studied the compound of Example 4 in animal models of trinitrobenzene sulfonic acid (TNBS)- and dextran sodium sulfate (DSS)-induced colitis. This study aimed to investigate the effects of inhibiting NAAA responsible for PEA hydrolysis in colon inflammation in order to propose a potential therapeutic target for inflammatory bowel diseases. PEA is a known anti-inflammatory compound with analgesic, neuroprotective and anti-allergic properties, and was recently shown to exert PPARα dependent beneficial effects on colon inflammation [Laboratory Investigation; a Journal of Technical Methods and Pathology. 2004; 84: 1643-54].

[3] = target: T1, hNAAA; test: Fluorescence-based NAAA inhibition assay with fluorogenic substrate PAMCA; conditions: for IC50: read-out: NAAA Inhibition IC50 μM, purified hNAAA, PAMCA 5 μM, pH 4.5;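 for all read-outs here: compound preincubated 15 min at room temperature with hNAAA, then PAMCA added at 5 µM, reacted 120 min at 37 °C, AMC release read by fluorescence (ex 360, em 460 nm)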
Protocol: For three point concentration inhibition assays with hNAAA the following procedure is used. […] These samples are allowed to incubate for 15 min at room temperature and then 10 μL of a PAMCA stock solution in DMSO (final PAMCA concentration [5 μM]) was added. After 5 minutes of agitation on a shaking plate, the reaction is allowed to proceed at 37° C. for 120 minutes, with fluorescence readings taken every 10 minutes at a wavelength of 460 nm (using an excitation wavelength of 360 nm) on a Synergy HT Plate Reader using Gen5 software from Bio-Tek. The enzyme activity is calculated by converting the relative fluorescence units to AMC formed, using a standard curve of AMC. […] The assay procedure used is the same as the three point assay. […] After 5 minutes of agitation on a shaking plate, the reaction is allowed to proceed at 37° C. for 120 minutes Inhibition constants are calculated using pro Fit software (Quantum Soft, Uetikon am See, Switzerland) and a Levenberg-Marquardt algorithm.
For three point concentration inhibition assays with hNAAA the following procedure is used. […] These samples are allowed to incubate for 15 min at room temperature and then 10 μL of a PAMCA stock solution in DMSO (final PAMCA concentration [5 μM]) was added. After 5 minutes of agitation on a shaking plate, the reaction is allowed to proceed at 37° C. for 120 minutes, with fluorescence readings taken every 10 minutes at a wavelength of 460 nm (using an excitation wavelength of 360 nm) on a Synergy HT Plate Reader using Gen5 software from Bio-Tek. The enzyme activity is calculated by converting the relative fluorescence units to AMC formed, using a standard curve of AMC.
The assay procedure used is the same as the three point assay. […] After 5 minutes of agitation on a shaking plate, the reaction is allowed to proceed at 37° C. for 120 minutes. Inhibition constants are calculated using pro Fit software (Quantum Soft, Uetikon am See, Switzerland) and a Levenberg-Marquardt algorithm.

[4] = 10 mg/kg bid, ip, sacrificed day 3

T1 sequence (Q02083 29-125): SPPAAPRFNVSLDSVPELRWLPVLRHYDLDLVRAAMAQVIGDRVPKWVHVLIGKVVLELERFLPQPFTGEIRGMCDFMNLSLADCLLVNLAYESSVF
T1 sequence (Q02083 126-359): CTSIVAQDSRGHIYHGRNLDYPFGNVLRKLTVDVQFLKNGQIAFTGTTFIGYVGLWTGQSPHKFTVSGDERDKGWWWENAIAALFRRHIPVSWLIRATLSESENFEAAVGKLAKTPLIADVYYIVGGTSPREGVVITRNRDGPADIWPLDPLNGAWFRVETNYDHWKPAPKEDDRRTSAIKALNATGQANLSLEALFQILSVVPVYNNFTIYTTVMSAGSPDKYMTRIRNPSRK

Compound	pIC50 [3]	IC50 [3] [µM]	other results
S=C=NCCCCCCCCCCc1ccccc1 [Example 4, (10-Isothiocyanatodecyl)benzene]	7.00 to 8.00		Effect of longer pre-incubation on IC50 ([1]; 15 min vs 180 min pre-incubation of inhibitor and enzyme before PAMCA): unaffected; Type of inhibition (Lineweaver-Burk plot) ([1]; PAMCA at different concentrations, inhibitor 50 nM): competitive type inhibitor; Mode of inhibition (reversibility) ([1]; conclusion from pre-incubation and rapid dilution): reversible and non-covalent inhibitor; Recovery of enzyme activity in rapid dilution experiment ([1]; dilution to inhibitor concentration below IC50): fully recovered; Pro-inflammatory cytokines and chemokines expression in the liver and brain ([2]; 10 mg/kg b.i.d, liver and brain): decreased; PEA levels in the colon ([2]; 10 mg/kg bid, ip, TNBS-induced colitis): increased; Expression of pro-inflammatory cytokines and chemokines in colon ([2]; 10 mg/kg bid, ip, colon): reduced; Leukocyte infiltration and activation (MPO activity, F4-80 and CD11b expression) ([2]; 10 mg/kg bid, ip, colon): reduced; All measured parameters of colon inflammation [2, 4]: decreased; Colon weight/length ratio [2, 4]: reduced; Weight of the cecal content [2, 4]: reduced
COc1cccc(-c2ccc(C(OC3CN(C#N)C3)c3ccccc3)cc2)c1 (stereo not drawn) [Example 100, 3-((3′-Methoxy-[1,1′-biphenyl]-4-yl)(phenyl)methoxy)azetidine-1-carbonitrile]	7.00 to 8.00		
Cc1noc(C)c1-c1ccc(C(OC2CN(C#N)C2)c2ccccc2)cc1 (stereo not drawn) [Example 101, 3-((4-(3,5-Dimethylisoxazol-4-yl)phenyl)(phenyl)methoxy)azetidine-1-carbonitrile]	7.00 to 8.00		
Cn1cc(-c2ccc(C(OC3CN(C#N)C3)c3ccccc3)cc2)cn1 (stereo not drawn) [Example 102, 3-((4-(1-Methyl-1H-pyrazol-4-yl)phenyl)(phenyl)methoxy)azetidine-1-carbonitrile]	7.00 to 8.00		
CN(Cc1ccc(-c2ccccc2)cc1)C1CN(C#N)C1 [Example 103, 3-(([1,1′-Biphenyl]-4-ylmethyl)(methyl)amino)azetidine-1-carbonitrile]	7.00 to 8.00		
N#CN1CC[C@H](OCc2ccc(-c3ccccc3)cc2)C1 [Example 104, (S)-3-([1,1′-Biphenyl]-4-ylmethoxy)pyrrolidine-1-carbonitrile]	6.00 to 6.96		
N#CN1CC[C@@H](OCc2ccc(-c3ccccc3)cc2)C1 [Example 105, (R)-3-([1,1′-biphenyl]-4-ylmethoxy)pyrrolidine-1-carbonitrile]	7.00 to 8.00		
N#CN1CCC(Oc2ccc(Br)cc2)CC1 [Example 106, 4-(4-Bromophenoxy)piperidine-1-carbonitrile]		> 1	
N#C[C@H]1C[C@H](OCc2ccc(-c3ccccc3)cc2)C1 [Example 107, (1R,3R)-3-([1,1′-Biphenyl]-4-ylmethoxy)cyclobutane-1-carbonitrile]		> 1	
N#C[C@H]1C[C@@H](OCc2ccc(-c3ccccc3)cc2)C1 [Example 108, (1S,3S)-3-([1,1′-biphenyl]-4-ylmethoxy)cyclobutane-1-carbonitrile]		> 1	
COc1cccc(-c2ccc(COC3CN(CC#N)C3)cc2)c1 [Example 109, 2-(3-((3′-Methoxy-[1,1′-biphenyl]-4-yl)methoxy)azetidin-1-yl)acetonitrile]		> 1	
N#Cc1ccc(OCc2ccc(Oc3ccccc3)cc2Br)cn1 [Example 110, 5-((2-Bromo-4-phenoxybenzyl)oxy)picolinonitrile]		> 1	
N#Cc1ccc(OCc2ccc(-c3ccccc3)cc2)cn1 [Example 111, 5-([1,1′-Biphenyl]-4-ylmethoxy)picolinonitrile]		> 1	
N#Cc1ncc(OCc2ccc(-c3ccccc3)cc2)cc1F [Example 112, 5-([1,1′-Biphenyl]-4-ylmethoxy)-3-fluoropicolinonitrile]		> 1	
N#Cc1ncc(F)cc1OCc1ccc(-c2ccccc2)cc1 [Example 113, 3-([1,1′-Biphenyl]-4-ylmethoxy)-5-fluoropicolinonitrile]		> 1	
N#Cc1cccc(C(=O)OCCCCCc2ccccc2)n1 [Example 114, 5-phenylpentyl 6-cyanopicolinate]		> 1	
N#Cc1ncc(OCCCCCCc2ccccc2)cn1 [Example 115, 5-((6-phenylhexyl)oxy)pyrimidine-2-carbonitrile]	6.00 to 6.96		
N#Cc1ncc(OCCCCCc2ccccc2)cn1 [Example 116, 5-((5-phenylpentyl)oxy)pyrimidine-2-carbonitrile]		> 1	
N#Cc1ncc(OCCOCCOCc2ccccc2)cn1 [Example 117, 5-(2-(2-(benzyloxy)ethoxy)ethoxy)pyrimidine-2-carbonitrile]		> 1	
